Blank lines part the entries; values can stand above or below the compound they belong to.
Key:
[1] = target: T1, glucocorticoid receptor (Rattus norvegicus, UniProt P06536); assay: competition with [3H]-triamcinolone acetonide, sucrose gradient centrifugation; settings: read-out: % [3H]-triamcinolone acetonide bound at 1 umol/l
T1 construct: gene Nr3c1; native receptor in R3230AC tumour cytosol (8-9 S component)
T1 sequence (P06536 1-795): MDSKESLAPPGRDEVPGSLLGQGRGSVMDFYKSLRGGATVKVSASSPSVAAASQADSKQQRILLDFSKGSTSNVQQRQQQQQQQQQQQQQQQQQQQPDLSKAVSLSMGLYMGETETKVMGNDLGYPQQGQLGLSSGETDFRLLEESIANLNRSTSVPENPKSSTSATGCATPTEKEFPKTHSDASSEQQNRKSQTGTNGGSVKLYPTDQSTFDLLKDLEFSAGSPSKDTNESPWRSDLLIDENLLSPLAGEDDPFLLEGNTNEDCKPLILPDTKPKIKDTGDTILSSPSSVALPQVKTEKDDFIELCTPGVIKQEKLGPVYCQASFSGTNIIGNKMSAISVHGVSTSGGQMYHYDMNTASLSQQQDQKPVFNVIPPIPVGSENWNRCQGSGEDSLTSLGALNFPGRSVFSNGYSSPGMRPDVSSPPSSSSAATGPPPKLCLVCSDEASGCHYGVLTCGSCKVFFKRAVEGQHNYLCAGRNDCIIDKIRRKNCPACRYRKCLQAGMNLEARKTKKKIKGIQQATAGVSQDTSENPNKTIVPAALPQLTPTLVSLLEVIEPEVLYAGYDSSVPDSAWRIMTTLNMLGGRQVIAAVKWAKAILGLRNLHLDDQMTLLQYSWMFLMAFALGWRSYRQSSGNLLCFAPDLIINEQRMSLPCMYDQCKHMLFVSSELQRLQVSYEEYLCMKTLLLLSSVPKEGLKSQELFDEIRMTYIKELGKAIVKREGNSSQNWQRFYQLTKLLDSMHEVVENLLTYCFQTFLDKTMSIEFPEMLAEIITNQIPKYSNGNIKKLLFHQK

[2] = target: T1, glucocorticoid receptor; assay: as above; settings: read-out: % [3H]-triamcinolone acetonide bound at 5 umol/l
[3] = target: T1, glucocorticoid receptor; assay: competition with [3H]-triamcinolone acetonide, sucrose gradient centrifugation (weak; no effect at […]); settings: read-out: % [3H]-triamcinolone acetonide bound at 5 umol/l

activity at 1 µM [1]: 14%
SMILES: C[C@]12C=CC(=O)C=C1CC[C@H]1[C@@H]3C[C@@H](O)[C@](O)(C(=O)CO)[C@@]3(C)C[C@H](O)[C@@]12F [Triamcinolone]

activity at 5 µM [2]: 25%
SMILES: C[C@]12CCC(=O)C=C1CC[C@@H]1[C@@H]2CC[C@@]2(C)[C@H]1CC[C@]2(O)C(=O)CO [cortexolone]

SMILES: C[C@]12CC[C@@H]3c4ccc(O)cc4CC[C@H]3[C@@H]1CC[C@@H]2O [Oestradiol-17β]
activity at 5 µM [3]: 45%

Reference: paper PMC2008813 (British Journal of Cancer, 1973)
